The target in data set [1] is T1, TRPV1 (Rattus norvegicus, UniProt O35433).
T1 construct: expressed in transfected cells; not restated for the selectivity test
Kind of data set: ThermoTRP selectivity test. It counts as cell-based. The settings on record: at 50 μM (data not shown).

Data set [2] deals with T2, TRPV3 (Mus musculus, UniProt Q8K424).
T2 construct: expressed in transfected cells; not restated for the selectivity test
T2 sequence (Q8K424 1-791): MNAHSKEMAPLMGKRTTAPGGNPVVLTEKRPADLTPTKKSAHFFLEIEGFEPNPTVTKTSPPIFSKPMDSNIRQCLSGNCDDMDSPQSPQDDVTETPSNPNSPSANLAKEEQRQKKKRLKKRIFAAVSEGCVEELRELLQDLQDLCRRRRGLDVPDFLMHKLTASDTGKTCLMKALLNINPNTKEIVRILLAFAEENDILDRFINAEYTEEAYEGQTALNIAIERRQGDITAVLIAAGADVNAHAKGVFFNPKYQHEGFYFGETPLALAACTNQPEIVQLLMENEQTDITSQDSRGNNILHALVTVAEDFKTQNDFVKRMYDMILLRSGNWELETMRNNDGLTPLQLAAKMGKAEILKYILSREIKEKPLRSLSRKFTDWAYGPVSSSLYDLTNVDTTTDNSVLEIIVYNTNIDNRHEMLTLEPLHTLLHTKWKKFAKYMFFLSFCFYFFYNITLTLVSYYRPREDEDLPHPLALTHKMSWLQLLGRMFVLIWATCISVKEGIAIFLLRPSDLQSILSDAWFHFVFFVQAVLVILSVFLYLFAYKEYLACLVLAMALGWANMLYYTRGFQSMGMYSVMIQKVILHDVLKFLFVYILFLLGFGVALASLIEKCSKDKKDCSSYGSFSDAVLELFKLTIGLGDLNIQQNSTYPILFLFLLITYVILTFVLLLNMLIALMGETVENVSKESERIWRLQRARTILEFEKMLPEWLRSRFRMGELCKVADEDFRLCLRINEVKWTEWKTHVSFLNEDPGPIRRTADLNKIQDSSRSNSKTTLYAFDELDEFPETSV
Kind of data set: ThermoTRP selectivity test. The data set is classed as cell-based. The settings on record: at 50 μM (data not shown).

A short description of data set [3]: Behavioral response to the compound alone in hindpaw. It counts as in vivo. Conditions: 1-10 mM in hindpaw of mice (data not shown).
The subject of data set [4] is acute heat or pressure to the paw. As to the kind of experiment: Nociceptive responses to acute heat or pressure to the paw. It counts as in vivo. Conditions: data not shown.
Data set [5] deals with BK-induced nociceptive mechanical behaviours. Kind of data set: Bradykinin-induced mechanical hyperalgesia (Von Frey threshold). Conditions: short term hyperalgesia model, 1 mM coinjected, mice. The data set is classed as in vivo.
Method: (§1) Red symbols represent responses from CFA-injected (A), or BK-injected (B) hindpaws while blue symbols represent responses from the other noninjected hindpaws of the same animals. Circles represent responses upon compound 18 treatment, whereas triangles represent responses upon vehicle treatments (A-C). Von Frey thresholds are measured and averaged. (***p<0.001, *p<0.05, two-tailed Student's T-test). […] Red symbols represent responses from CFA-injected hindpaws while blue symbols represent responses from the other non-injected hindpaws of the same animals. Number of flicks, licks, paw raises for 10 min at each time point are counted and averaged (n=8, *p<0.05, two-tailed Student's T-test).
Behavioral assays: Mice (C57B16 Mus musculus) of 8-10 weeks in age and 150-250 g Sprague Dawley rats were used for all behavioral assays. Animals were acclimated for 20-60 min to their testing environment prior to all experiments. Students' T test was used for all statistical calculations. All error bars represent standard error of the mean (SEM). Thermal plates, Hargreaves method (Plantar Analgesia meter) and Von Frey apparatus (Dynamic Plantar Aesthesiometer) were from UGO Basile and Columbus instruments. […] Baseline responses were measured first and then 10 nM BK was injected to the skin of left hindpaws. Von Frey threshold or paw withdrawal latency was measured at 5, 15 and 30 min post injection. […]
In data set [6] the test system is bradykinin (BK)-induced heat hyperalgesia. As to the kind of experiment: Bradykinin-induced heat hyperalgesia. The data set is classed as in vivo. Conditions: mice.
Method: as §1
Behavioral assays: Mice (C57B16 Mus musculus) of 8-10 weeks in age and 150-250 g Sprague Dawley rats were used for all behavioral assays. Animals were acclimated for 20-60 min to their testing environment prior to all experiments. Students' T test was used for all statistical calculations. All error bars represent standard error of the mean (SEM). Thermal plates, Hargreaves method (Plantar Analgesia meter) and Von Frey apparatus (Dynamic Plantar Aesthesiometer) were from UGO Basile and Columbus instruments. […] Briefly, mice were acclimated for 60 min to their testing environment prior to all experiments. Baseline responses were measured first and then 10 nM BK was injected to the skin of left hindpaws. Von Frey threshold or paw withdrawal latency was measured at 5, 15 and 30 min post injection. 1 mM of compound 18 was sometimes coinjected to left hindpaws to test its analgesic effect. For CFA-induced hyperalgesia test, 5 μg CFA in 10 uL was injected into mice (Caterina et al., Science 288:306, 2000; and Cao et al., Nature 392:390, 1998) and 50 μg in 100 uL (1:1 emulsion of mineral oil and saline; Obata et al., J Clin Invest 115:2393, 2005) was injected into rats and in 24 hrs measurements were performed. Before the measurement, the animals were re-acclimated to the environment for 20-60 min. […]
In data set [7] the test system is TRPV1, TRPV2, TRPV3, TRPV4, or TRPM8. Kind of data set: Effect on other thermoTRPs (summary statement). The data set is classed as cell-based. The source says:
TRPA1 inhibitors that can be employed in the practice of the present invention include compounds that interferes with the expression, modification, regulation or activation of TRPA1, or compounds that down-regulates one or more of the normal biological activities of TRPA1 (e.g., its ion channel). […] Various TRPA1-specific antagonists can be used in the instant invention. Some of these TRPA1-specific inhibitors are identified by the present inventors, as described in the Examples below. These compounds can be obtained commercially or are otherwise described in the art. One such compound is Compound 18, (Z)-4-(4-chlorophynyl)-3-methylbut-3-en-2-oxime. This compound can be obtained commercially from Maybridge (Cornwall, UK). Another example is Compound 40, N,N′-Bis-(2-hydroxybenzyl)-2,5-diamino-2,5-dimethylhexane, which has been described in U.S. Pat. No. 4,129,556. […] Thus, these two compounds can be readily used to treat or alleviate mechanical hyperalgesia as described in more detail below.

For data set [8], the target named is T3, TRPA1 (Homo sapiens, UniProt O75762). Kind of data set: TRPA1 block, test not specified. Conditions: summary statement.
Target sequence in this assay (O75762 whole entry, species assumed): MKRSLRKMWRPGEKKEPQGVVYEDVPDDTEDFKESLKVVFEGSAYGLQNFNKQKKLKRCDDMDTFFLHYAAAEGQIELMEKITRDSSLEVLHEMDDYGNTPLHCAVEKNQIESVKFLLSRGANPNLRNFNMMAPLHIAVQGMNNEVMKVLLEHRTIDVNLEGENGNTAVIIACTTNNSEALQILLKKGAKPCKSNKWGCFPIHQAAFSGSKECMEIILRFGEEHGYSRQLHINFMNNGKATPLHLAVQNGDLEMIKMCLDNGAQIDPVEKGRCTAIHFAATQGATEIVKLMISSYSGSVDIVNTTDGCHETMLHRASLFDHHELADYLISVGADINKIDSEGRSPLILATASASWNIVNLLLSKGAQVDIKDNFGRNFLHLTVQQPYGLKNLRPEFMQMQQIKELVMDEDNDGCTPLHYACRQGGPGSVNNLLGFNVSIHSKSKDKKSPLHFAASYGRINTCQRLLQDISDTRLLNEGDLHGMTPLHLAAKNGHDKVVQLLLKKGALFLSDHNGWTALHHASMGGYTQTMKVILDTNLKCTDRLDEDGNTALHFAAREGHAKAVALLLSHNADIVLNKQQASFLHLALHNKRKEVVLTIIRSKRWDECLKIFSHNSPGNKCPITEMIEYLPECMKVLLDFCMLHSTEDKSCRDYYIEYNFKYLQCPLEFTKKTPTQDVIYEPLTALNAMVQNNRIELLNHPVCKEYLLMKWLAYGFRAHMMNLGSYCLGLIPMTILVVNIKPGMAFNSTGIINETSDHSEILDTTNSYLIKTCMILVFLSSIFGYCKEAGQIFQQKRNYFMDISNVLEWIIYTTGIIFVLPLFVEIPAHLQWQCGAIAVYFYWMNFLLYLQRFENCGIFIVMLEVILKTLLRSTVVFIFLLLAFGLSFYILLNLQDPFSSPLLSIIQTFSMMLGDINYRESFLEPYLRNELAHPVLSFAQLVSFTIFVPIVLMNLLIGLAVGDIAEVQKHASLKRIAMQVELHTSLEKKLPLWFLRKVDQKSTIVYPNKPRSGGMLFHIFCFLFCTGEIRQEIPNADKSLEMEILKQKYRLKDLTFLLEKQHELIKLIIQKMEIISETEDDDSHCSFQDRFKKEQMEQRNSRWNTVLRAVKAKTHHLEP
Data set [9] has as its target T3, TRPA1. As to the kind of experiment: Cinnamaldehyde-induced currents in inside-out excised patches of Xenopus oocytes. The settings on record: coapplication with cinnamaldehyde, inside-out macropatches. It counts as cell-based. More on the design: expressed in transfected cells; host or cells: Xenopus oocytes injected with cRNA (pOX vector).
Target sequence in this assay (O75762 whole entry): as the sequence (O75762 whole entry, species assumed) above
Method: (C) Current-voltage relationship of TRPA1.
Mature 17 defolliculated Xenopus oocytes were injected with 50 nl of human TRPA1 cRNA at ˜1 μg/μl. Oocytes were incubated in ND96 (96 mM NaCl, 2 mM KCl, 1 mM MgCl2, 1.8 mM CaCl2, 5 mM HEPES, pH 7.4, supplemented with Na-pyruvate (2.5 mM), penicillin (100 u/ml) and streptomycin (100 μg/ml) 3-5 days to ensure expression. Vitelline envelopes were mechanically removed prior to recording. Recordings were made under voltage clamp from excised patches in the inside-out configuration at room temperature with 1-1.5 MΩ pipettes. The bath ground was isolated using an agar bridge. Capacitance and series resistance were compensated and solutions that eliminate native calcium-activated chloride currents were used (Patch electrode (in mM): 140 NaMES, 4 NaCl, 1 EGTA, 10 HEPES, pH 7.2; bath solution: 140 KMES, 4 KCl, 1 EGTA, 10 HEPES, pH 7.2). Compounds were added to the bath solution. Currents were recorded using a Multiclamp 700B amplifier and the pCLAMP acquisition suite.

Entries after “also recorded” stand apart in the source; their conditions may differ.

T1 sequence (O35433 whole entry): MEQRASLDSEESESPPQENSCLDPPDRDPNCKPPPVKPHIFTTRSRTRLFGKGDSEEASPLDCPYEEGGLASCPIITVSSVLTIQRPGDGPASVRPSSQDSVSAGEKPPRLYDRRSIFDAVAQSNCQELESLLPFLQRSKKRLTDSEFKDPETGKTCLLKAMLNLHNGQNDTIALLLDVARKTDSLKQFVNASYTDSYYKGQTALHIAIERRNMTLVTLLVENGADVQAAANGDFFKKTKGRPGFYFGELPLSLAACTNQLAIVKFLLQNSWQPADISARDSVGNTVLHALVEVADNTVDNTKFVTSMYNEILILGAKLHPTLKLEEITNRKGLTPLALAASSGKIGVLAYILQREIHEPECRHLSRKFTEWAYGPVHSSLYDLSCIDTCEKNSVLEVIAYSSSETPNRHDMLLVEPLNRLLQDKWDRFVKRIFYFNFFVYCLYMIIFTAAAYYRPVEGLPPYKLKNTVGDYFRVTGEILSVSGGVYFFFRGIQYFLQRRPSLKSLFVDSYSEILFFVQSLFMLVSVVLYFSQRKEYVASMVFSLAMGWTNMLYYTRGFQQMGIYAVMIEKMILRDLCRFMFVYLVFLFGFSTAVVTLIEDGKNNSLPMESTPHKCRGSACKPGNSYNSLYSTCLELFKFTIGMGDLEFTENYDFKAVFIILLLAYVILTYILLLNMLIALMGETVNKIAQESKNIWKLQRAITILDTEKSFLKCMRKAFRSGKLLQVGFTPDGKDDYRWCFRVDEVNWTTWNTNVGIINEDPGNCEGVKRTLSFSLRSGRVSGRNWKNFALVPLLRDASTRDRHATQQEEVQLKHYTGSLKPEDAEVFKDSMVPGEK

`CC(=Cc1ccc(Cl)cc1)C(C)=NO` [Compound 18, (Z)-4-(4-chlorophynyl)-3-methylbut-3-en-2-oxime]: the “block of TRPV1” value in [1] is reported as “did not block”. For the same compound, the “block of TRPV3” value in data set [2] was “did not block”. In data set [3], the “behavioral response to the compound alone” value is given as “did not cause any behavioral response”. In data set [4], the “nociceptive responses to acute heat to the paw” value is on record as “not affected” and the “nociceptive responses to acute pressure to the paw” value was “not affected”. In data set [5], the “BK-induced mechanical nociceptive behavior” value was “reverses”. Also, the BK-induced heat hyperalgesia result in [6] was “not thermal (heat) behaviours; also recorded: did not block”. In addition, the “effect on activation or activities of the other thermoTRPs” value in [7] is “little or no effect”. For the same compound, the “inhibition of TRPA1 activation or function” value in [8] is listed as “specifically inhibit TRPA1 activation or function”. Moreover, the “block of cinnamaldehyde-induced TRPA1 currents in excised patches” value in data set [9] was “suppressed; also recorded: blocked”.

Source of the values: US20090175882A1, “METHODS AND COMPOSITIONS FOR TREATING HYPERALGESIA” (IRM LLC, priority 2006, published 2009).
